Patent publication US12558343B2, “Medical use of icaritin” (Lunan Pharmaceutical Group Corporation, priority 2020, dated 2026)
Read-outs that look alike come from different tables or passages of the source.

Experiments:
[1] = test system: platelets (activation induced by adenosine diphosphate); assay: Platelet activation induced by adenosine diphosphate, flow cytometry (CD62p/CD61), blood of dosed rats; format: in vivo, SD rats; conditions: for Activation rate of platelets activated by adenosine diphosphate, Basic value / Spontaneous activation rate: before administration; for Spontaneous activation rate: no adenosine diphosphate; for Activation-promoting rate: after vs basic value; for Activation rate of platelets activated by adenosine diphosphate, After administration: 20 min after last administration
Procedure: 0.5 mL of blood was collected from the orbit of the rat and 3.8% sodium citrate was added for anticoagulation (a ratio of blood to anticoagulant was 9:1) to prepare anticoagulated blood. 50 μL of anticoagulated blood was taken from each animal for determination of spontaneous platelet activation rate; and another 50 μL of anticoagulated blood was taken and 50 μL of adenosine diphosphate with a final concentration of 10 μmol was added for activation. 1.0-1.5 μL of each of CD62pPE/Cy7 and CD61PE was added to double-label the 2 anticoagulated blood, CD61 was used to label all the platelets and CD62p was used to label the activated platelets. […] The rats were double-labeled with G2a-PE/Cy7 and G-PE […] as a control. Each tube containing the treated blood was incubated at 4° C. in a dark place for 20 min; and 0.5 mL of 4% paraformaldehyde was added to fix for 10 min. 50 μL of the fixed blood sample was taken and diluted with 1 mL of a diluent, and the diluted sample was analyzed on a flow cytometer. Platelet populations were delineated in a CD61PE/Side Angle Light Scattering (SSC) two-parameter scatterplot, 5,000 platelets were counted, the number of CD61 and CD62p-positive cells was further counted in a CD61/CD62p scatterplot, and a percentage of a positive expression rate of CD62p in an expression rate of CD61 reflected a platelet activation rate (%).
(§1) Twenty-four rats were taken and divided into 3 groups with 8 rats in each group. […] 1.0 mL of blood was collected from the orbits before administration and 20 min after a last administration, wherein 0.5 mL was used for a blood routine examination and 0.5 mL was used to prepare anticoagulated blood. The blood was treated and analyzed on the flow cytometer according to the detection method of platelet activation by flow cytometry. An activation rate of platelets activated by adenosine diphosphate (basic value) before administration and an activation rate of platelets activated by adenosine diphosphate after administration were compared. At the same time, 50 μL of anticoagulated blood was taken from the rats before administration, adenosine diphosphate was not added, and a spontaneous activation rate of the anticoagulated blood of animals was measured using the same method. The animals were fasted for 16-24 h before each blood sampling.

[2] = Blood routine examination of rats before/after icaritin (Efficacy Example 1); format: in vivo, SD rats
Procedure: as §1

[3] = test system: prolonged bleeding time caused by aspirin; assay: Tail-cut bleeding time in mice, prolonged by aspirin; format: in vivo, ICR mice; conditions: aspirin 20 mg/kg i.g.
Procedure: According to the body weight on the last day of the quarantine, the male and female animals were divided into six groups by a simplified random method, namely, a normal group (C), a model group (V), icaritin low-, medium- and high-dose groups (2, 6, and 18 mg/kg, L, M, H) and a positive control drug group (200 mg/kg of etamsylate, P).
After 15 min of the modeling, the tails of the mice were cut and bleeding time of each mouse was measured.

[4] = mouse, in vivo
Procedure: (§2) After the grouping, the mice in the normal group and the model group were intragastrically administrated with 10 ml/kg of an icaritin solvent which was prepared by adding 12 g of hypromellose E5 and 0.1 g of sodium lauryl sulfate into 1 L of water. […] One hour after the last pre-administration, the mice in the model group and each administration group were injected with 150 U/kg of a heparin sodium injection through a tail vein to establish a model, and the mice in the normal group were injected with 10 ml/kg of a sodium chloride injection through a tail vein.
(§3) After the bleeding time was detected, the mice were anesthetized with sodium pentobarbital, blood was collected from an abdominal cardinal vein, and indicators of blood routine examination and four coagulation indicators (prothrombin time, thromboplastin time, thrombin time, and fibrinogen) were detected.

[5] = mouse, in vivo; remark: listed apart in the source
Procedure: as §2, §3

COc1ccc(-c2oc3c(CC=C(C)C)c(O)cc(O)c3c(=O)c2O)cc1 [Icaritin]
Activation rate of platelets activated by adenosine diphosphate, Basic value ([1]; 3 mg/kg group): 44.02 ± 11.21% | Spontaneous activation rate ([1]; 3 mg/kg group): 0.60 ± 0.11% | Activation-promoting rate ([1]; 3 mg/kg i.g. 3 days): 32.12% | Activation rate of platelets activated by adenosine diphosphate, After administration ([1]; 3 mg/kg i.g. once a day 3 days): 58.16 ± 13.41% | Activation rate of platelets activated by adenosine diphosphate, Basic value ([1]; 6 mg/kg group): 47.19 ± 13.12% | Spontaneous activation rate ([1]; 6 mg/kg group): 0.59 ± 0.20% | Activation-promoting rate ([1]; 6 mg/kg i.g. 3 days): 38.22% | Activation rate of platelets activated by adenosine diphosphate, After administration ([1]; 6 mg/kg i.g. once a day 3 days): 65.23 ± 16.78% | Activation rate of platelets activated by adenosine diphosphate, Basic value ([1]; 18 mg/kg group): 50.34 ± 19.22% | Spontaneous activation rate ([1]; 18 mg/kg group): 0.61 ± 0.14% | Activation-promoting rate ([1]; 18 mg/kg i.g. 3 days): 55.84% | Activation rate of platelets activated by adenosine diphosphate, After administration ([1]; 18 mg/kg i.g. once a day 3 days): 78.45 ± 20.22% | Concentration of hemoglobin ([2]; 3 mg/kg i.g. 3 days): 180500 ± 11200 µg/mL | Number of erythrocytes ([2]; 3 mg/kg i.g. 3 days): 7.213 ± 0.554 10^12/L | Number of leukocytes ([2]; 3 mg/kg i.g. 3 days): 1.832 ± 0.154 10^9/L | Number of platelets ([2]; 3 mg/kg i.g. 3 days): 1124 ± 209 10^9/L | Concentration of hemoglobin ([2]; 6 mg/kg i.g. 3 days): 179000 ± 9200 µg/mL | Number of erythrocytes ([2]; 6 mg/kg i.g. 3 days): 6.783 ± 0.871 10^12/L | Number of leukocytes ([2]; 6 mg/kg i.g. 3 days): 1.653 ± 0.421 10^9/L | Number of platelets ([2]; 6 mg/kg i.g. 3 days): 1397 ± 143 10^9/L | Concentration of hemoglobin ([2]; 18 mg/kg i.g. 3 days): 181600 ± 9500 µg/mL | Number of erythrocytes ([2]; 18 mg/kg i.g. 3 days): 7.235 ± 0.656 10^12/L | Number of leukocytes ([2]; 18 mg/kg i.g. 3 days): 1.761 ± 0.335 10^9/L | Number of platelets ([2]; 18 mg/kg i.g. 3 days): 1249 ± 166 10^9/L | Bleeding time ([3]; group H, 18 mg/kg i.g. once a day 5 days): 16.7 ± 7.2^$ $ & min | Bleeding time ([3]; group L, 2 mg/kg i.g. once a day 5 days, tail cut 15 min after modeling): 28.4 ± 9.8^$ min | Bleeding time ([3]; group M, 6 mg/kg i.g. once a day 5 days): 24.7 ± 7.3^$ min | Fibrinogen ([4]; 2 mg/kg): 1.83 ± 0.22 g/L | Prothrombin time ([4]; 2 mg/kg): 10.12 ± 1.34 s | Thrombin time ([4]; 2 mg/kg): 22.23 ± 2.01 s | Thromboplastin time ([4]; 2 mg/kg): 25.19 ± 1.90 s | Fibrinogen ([4]; 6 mg/kg): 1.82 ± 0.56 g/L | Prothrombin time ([4]; 6 mg/kg): 11.23 ± 1.45 s | Thrombin time ([4]; 6 mg/kg): 24.09 ± 1.99 s | Thromboplastin time ([4]; 6 mg/kg): 25.09 ± 2.22 s | Fibrinogen ([4]; 18 mg/kg): 2.01 ± 0.52 g/L | Prothrombin time ([4]; 18 mg/kg): 9.98 ± 1.23 s | Thrombin time ([4]; 18 mg/kg): 25.54 ± 1.78 s | Thromboplastin time ([4]; 18 mg/kg): 24.55 ± 2.66 s | Number of erythrocytes ([5]; 2 mg/kg): 7.109 ± 0.656 10^12/L | Number of leukocytes ([5]; 2 mg/kg): 1.895 ± 0.207 10^9/L | Number of platelets ([5]; 2 mg/kg): 1046 ± 136 10^9/L | Number of erythrocytes ([5]; 6 mg/kg): 7.111 ± 0.634 10^12/L | Number of leukocytes ([5]; 6 mg/kg): 1.934 ± 0.199 10^9/L | Number of platelets ([5]; 6 mg/kg): 1110 ± 128 10^9/L | Number of erythrocytes ([5]; 18 mg/kg): 7.090 ± 0.761 10^12/L | Number of leukocytes ([5]; 18 mg/kg): 1.888 ± 0.223 10^9/L | Number of platelets ([5]; 18 mg/kg): 1059 ± 170 10^9/L
